From ChEMBL document CHEMBL1795343, “SAR of 2-amino and 2,4-diamino pyrimidines with in vivo efficacy against Trypanosoma brucei” (Bioorg Med Chem Lett, 2011)
pIC50: −log10 of the molar value. Values after ≈ are worked out from the molar mass of the structure shown.

Key:
[1] = tested on: Trypanosoma brucei brucei; experiment: Antitrypanosomal activity against Trypanosoma brucei brucei; type: functional, organism-based
[2] = tested on: L929; experiment: Cytotoxicity against mouse L929 cells; type: cell-based
[3] = tested on: MDCK; experiment: Absorption quotient of the compound across MDCK cells expressing human MDR1; type: ADME, cell-based, Canis lupus familiaris; details: dog
[4] = tested on: MDR1 (P-gp); experiment: Apparent permeability of the compound across MDCK cells expressing human MDR1 in absence of P-gp inhibitor GF120918; type: ADME, cell-based, Canis lupus familiaris; details: dog
[5] = Half life in S9 microsomes; type: ADME, subcellular, S9 fraction
[6] = tested on: Trypanosoma brucei brucei; experiment: Antitrypanosomal activity against Trypanosoma brucei brucei infected in nonCNS acute HAT mouse model assessed as cure rate at 20 mg/kg, ip administered after 30 days; type: functional; details: route intraperitoneal
[7] = tested on: MDCK; experiment: Permeability of the compound across MDCK cells expressing human MDR1; type: ADME, cell-based, Canis lupus familiaris; details: dog
[8] = Aqueous solubility of the compound; type: physicochemical; details: buffer
[9] = tested on: Trypanosoma brucei brucei; experiment: Antitrypanosomal activity against Trypanosoma brucei brucei infected in nonCNS acute HAT mouse model assessed as cure rate at 20 mg/kg, po administered after 30 days; type: functional
[10] = tested on: Trypanosoma brucei brucei; experiment: Antitrypanosomal activity against Trypanosoma brucei brucei in nonCNS acute HAT mouse model assessed as cure rate; type: functional

SMILES	pIC50 [1]	half-life [5]	pIC50 [2]	further results
COc1ccccc1C(=O)c1cnc(N2CCN(C(=O)Nc3ccccc3)CC2)nc1N	< 4.92	–	< 4.57	–
COc1ccccc1C(=O)c1cnc(N[C@H]2CC[C@@H](C(=O)Nc3ccccc3)CC2)nc1N	< 4.96	–	< 4.66	–
COc1ccccc1C(=O)c1cnc(NC2CCN(c3nc4ccccc4[nH]3)CC2)nc1	6.51	0.75 h	–	AQ [3]: 0.77; Papp [4]: 11.4 ×10⁻⁶ cm/s
COc1ccccc1C(=O)c1cnc(NCCCNC(=O)Nc2ccccc2)nc1N	5.35	–	4.96	–
COc1ccc(F)cc1C(=O)c1cnc(NC2CCN(S(C)(=O)=O)CC2)nc1N	6.77	> 5.83 h	–	AQ [3]: 0.49; Activity [6]: 100%; Papp [4]: 27.2 ×10⁻⁶ cm/s; permeability [7]: impermeable; Activity [9]: 100%
COc1ccccc1C(=O)c1cnc(NC2CCN(C(=O)Nc3ccccc3)CC2)nc1C	5.80	1.22 h	–	–
COc1cccc(C(=O)c2cnc(NC3CCN(S(C)(=O)=O)CC3)nc2N)c1	5.00	–	–	–
COc1ccccc1C(=O)c1cnc(NC2CCN(C(=O)Nc3ccccc3)CC2)nc1	6.48	2.8 h	–	AQ [3]: 0.14; Papp [4]: 39.8 ×10⁻⁶ cm/s; Activity [10]: 33%
COc1ccc(C(=O)c2cnc(NC3CCN(S(C)(=O)=O)CC3)nc2N)cc1	< 4.92	–	–	–
COc1ccccc1C(=O)c1cnc(NC2CCN(C(=O)Nc3ccccc3)C2)nc1N (stereo not drawn)	5.26	–	4.89	–
CS(=O)(=O)N1CCC(Nc2ncc(C(=O)c3ccccc3)c(N)n2)CC1	5.13	–	–	–
Cc1ccccc1C(=O)c1cnc(NC2CCN(S(C)(=O)=O)CC2)nc1N	5.74	–	–	–
COc1ccccc1C(=O)c1cnc(N[C@H]2CC[C@H](C(=O)Nc3ccccc3)CC2)nc1N	5.34	–	5.34	–
COc1ccccc1C(=O)c1cnc(NC2CCN(S(C)(=O)=O)CC2)nc1	5.74	3.72 h	–	–
CCOc1ccccc1C(=O)c1cnc(NC2CCN(C(=O)Nc3ccccc3)CC2)nc1N	6.59	–	–	–
COc1ccc(F)cc1C(=O)c1cnc(NC2CCN(S(C)(=O)=O)CC2)nc1	6.24	–	–	AQ [3]: 0.18; Papp [4]: 56.1 ×10⁻⁶ cm/s; Activity [10]: 66%
CCc1ccccc1C(=O)c1cnc(NC2CCN(C(=O)Nc3ccccc3)CC2)nc1N	6.77	–	–	–

Now from value to compound, other results behind:

pIC50 [1]	half-life [5]	SMILES	pIC50 [2]	further results
6.89	–	COc1ccccc1C(=O)c1cnc(NC2CCN(C(=O)Nc3ccccc3F)CC2)nc1N	5.39	–
6.54	–	COc1cccc(NC(=O)N2CCC(Nc3ncc(C(=O)c4ccccc4OC)c(N)n3)CC2)c1	5.16	–
7.35	1.6 h	COc1ccccc1C(=O)c1cnc(NC2CCN(C(=O)Nc3ccccc3)CC2)nc1N	5.12	AQ [3]: 0.63; Activity [6]: 100%; Papp [4]: 15.1 ×10⁻⁶ cm/s; permeability [7]: impermeable; solubility [8]: 25 µM (≈ 11.2 µg/mL); Activity [9]: 100%
< 4.92	7.23 h	COc1ccccc1C(=O)c1cnc(NC2CCN(S(C)(=O)=O)CC2)nc1C	–	–
7.19	2.53 h	COc1ccccc1C(=O)c1cnc(NC2CCN(C(=O)Nc3ccc(F)cc3)CC2)nc1N	5.34	solubility [8]: 25 µM (≈ 11.6 µg/mL)
6.96	–	COc1ccccc1C(=O)c1cnc(NC2CCN(C(=O)Nc3cccc(C)c3)CC2)nc1N	5.15	–
6.54	0.667 h	COc1ccccc1C(=O)c1cnc(NC2CCN(c3nc4ccccc4s3)CC2)nc1N	4.82	–
6.96	–	COc1ccccc1C(=O)c1cnc(NC2CCN(C(=O)Nc3ccc(C)cc3)CC2)nc1N	5.54	–
< 4.85	–	COc1ccccc1C(=O)c1cnc(NC2CCNCC2)nc1N	–	–
5.51	–	COc1ccccc1C(=O)c1cnc(NC2CCN(c3nccs3)CC2)nc1N	< 4.62	–
5.82	–	COc1ccccc1C(=O)c1cnc(NC2CCN(c3nc4ccccc4n3C)CC2)nc1N	< 4.66	–
6.39	–	COc1ccccc1C(=O)c1cnc(NC2CCN(C(=O)Nc3ccccc3C)CC2)nc1N	5.00	–
6.72	–	COc1ccccc1NC(=O)N1CCC(Nc2ncc(C(=O)c3ccccc3OC)c(N)n2)CC1	5.92	–
6.18	> 5.83 h	COc1ccccc1C(=O)c1cnc(NC2CCN(S(C)(=O)=O)CC2)nc1N	4.96	Activity [6]: 100%; permeability [7]: impermeable; solubility [8]: 50 µM (≈ 20.3 µg/mL); Activity [9]: 100%
5.48	–	COc1ccccc1C(=O)c1cnc(NC2CCN(C(C)=O)CC2)nc1N	< 4.57	–
6.47	0.533 h	COc1ccccc1C(=O)c1cnc(NC2CCN(C(=O)Cc3ccccc3)CC2)nc1N	4.70	solubility [8]: 6 µM (≈ 2.67 µg/mL)
6.43	0.133 h	COc1ccccc1C(=O)c1cnc(NC2CCN(S(=O)(=O)Cc3ccccc3)CC2)nc1N	5.04	solubility [8]: 2 µM (≈ 0.963 µg/mL)
6.44	–	COc1ccc(NC(=O)N2CCC(Nc3ncc(C(=O)c4ccccc4OC)c(N)n3)CC2)cc1	5.47	–
7.06	1.6 h	COc1ccccc1C(=O)c1cnc(NC2CCN(c3nc4ccccc4[nH]3)CC2)nc1N	5.12	solubility [8]: 13 µM (≈ 5.77 µg/mL)
7.52	–	COc1ccc(F)cc1C(=O)c1cnc(NC2CCN(C(=O)Nc3ccccc3)CC2)nc1N	–	–
7.37	2.82 h	COc1ccccc1C(=O)c1cnc(NC2CCN(C(=O)Nc3cccc(F)c3)CC2)nc1N	5.03	solubility [8]: 13 µM (≈ 6.04 µg/mL)
